Reference: patent US6914045B2, “Glycopeptide antibiotics” (Wyeth Holdings Corporation, priority 2001, dated 2005)
Converted amounts (≈) assume the structure as drawn.

How the values were obtained:
Experiment in all cases: in vitro antibacterial evaluation, MIC by broth dilution
Format in all cases: cell-based
Details in all cases: broth dilution, 18 hours at 35° C.
Streptococcus sp. = tested on: Streptococcus sp.
In short: (§1)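 Inoculum 5×10^5 CFU/mL; concentrations 64 to 0.06 μg/mL; MIC defined as lowest inhibitory level. Conducted by broth dilution under NCCLS guidelines.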

Staphylococcus sp. = tested on: Staphylococcus sp.
In short: as §1

Enterococcus sp. = tested on: Enterococcus sp.
In short: as §1

Escherichia coli = tested on: Escherichia coli
In short: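 Broth dilution in Muller-Hinton II medium per NCCLS standard M7-A2, with an inoculum of 5×10^5 CFU/mL and antibiotic tested over 64-0.06 μg/mL. MIC was taken as the lowest concentration inhibiting visible growth.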

## CC(c1ccccc1)C1NC(=O)CNC(=O)C(CO)NC(=O)C(C(O)C2CNC(=N)N2C2OC(CO)C(O)C(O)C2O)NC(=O)C(C(O)C2CNC(=N)N2)NC(=O)C(Cc2ccc3oc(-c4ccccc4OC4OC(CO)C(O)C(O)C4O)nc3c2)NC1=O (stereo not drawn) [Example 36, Cyclo[3-[2-[2-(hexopyranosyloxy)phenyl]-1,3-benzoxazol-5-yl]alanyl-3-(2-iminoimidazolidin-4-yl)seryl-3-(3-hexopyranosyl-2-iminoimidazolidin-4-yl)serylserylglycyl-β-methyl-phenylalanyl]]
Streptococcus sp.; strain ATCC 6301
  MIC Streptococcus pneumoniae (ATCC 6301): >128 µg/mL
Streptococcus sp.; strain GC 1894
  MIC Streptococcus pneumoniae (GC 1894): 128 µg/mL (≈ 102 µM)
Streptococcus sp.; strain GC 4563
  MIC Streptococcus pyogenes (GC 4563): 128 µg/mL (≈ 102 µM)
Streptococcus sp.; strain GC 4564
  MIC Streptococcus agalactiae (GC 4564): >128 µg/mL
Streptococcus sp.; strain GC 4565
  MIC Streptococcus pneumoniae (GC 4565): >128 µg/mL
Staphylococcus sp.; strain ATCC 29213
  MIC Staphylococcus aureus (ATCC 29213): >128 µg/mL
Staphylococcus sp.; strain GC 1131
  MIC Staphylococcus aureus (GC 1131): >128 µg/mL
Staphylococcus sp.; strain GC 3051
  MIC Staphylococcus aureus (GC 3051): >128 µg/mL
Staphylococcus sp.; strain GC 3053
  MIC Staphylococcus aureus (GC 3053): >128 µg/mL
Staphylococcus sp.; strain GC 4541
  MIC Staphylococcus aureus (GC 4541): >128 µg/mL
Staphylococcus sp.; strain GC 4542
  MIC Staphylococcus aureus (GC 4542): >128 µg/mL
Staphylococcus sp.; strain GC 4543
  MIC Staphylococcus aureus-SMITH (GC 4543): >128 µg/mL
Staphylococcus sp.; strain GC 4544
  MIC Staphylococcus aureus (GC 4544): >128 µg/mL
Staphylococcus sp.; strain GC 4545
  MIC Staphylococcus aureus (GC 4545): >128 µg/mL
Staphylococcus sp.; strain GC 4546
  MIC Staphylococcus haemolyticus (GC 4546): 64 µg/mL (≈ 51.2 µM)
Staphylococcus sp.; strain GC 4547
  MIC Coagulase Negative Staphylococcus (GC 4547): 64 µg/mL (≈ 51.2 µM)
Staphylococcus sp.; strain GC 4548
  MIC Coagulase Negative Staphylococcus (GC 4548): 128 µg/mL (≈ 102 µM)
Staphylococcus sp.; strain GC 4549
  MIC Coagulase Negative Staphylococcus (GC 4549): 64 µg/mL (≈ 51.2 µM)
Staphylococcus sp.; strain GC 4551
  MIC Coagulase Negative Staphylococcus (GC 4551): >128 µg/mL
Staphylococcus sp.; strain GC 6257
  MIC Coagulase Negative Staphylococcus (GC 6257): 64 µg/mL (≈ 51.2 µM)
Enterococcus sp.; strain ATCC 29212
  MIC Enterococcus faecalis (ATCC 29212): >128 µg/mL
Enterococcus sp.; strain GC 2242
  MIC Enterococcus faecalis (GC 2242): >128 µg/mL
Enterococcus sp.; strain GC 2243
  MIC Enterococcus faecium (GC 2243): >128 µg/mL
Enterococcus sp.; strain GC 2691
  MIC Enterococcus faecalis (GC 2691): >128 µg/mL
Enterococcus sp.; strain GC 3059
  MIC Enterococcus faecalis (GC 3059): >128 µg/mL
Enterococcus sp.; strain GC 4552
  MIC Enterococcus faecalis (GC 4552): >128 µg/mL
Enterococcus sp.; strain GC 4553
  MIC Enterococcus faecalis (GC 4553): 128 µg/mL (≈ 102 µM)
Enterococcus sp.; strain GC 4554
  MIC Enterococcus faecalis (GC 4554): >128 µg/mL
Enterococcus sp.; strain GC 4556
  MIC Enterococcus faecium (GC 4556): >128 µg/mL
Enterococcus sp.; strain GC 4557
  MIC Enterococcus faecium (GC 4557): 128 µg/mL (≈ 102 µM)
Enterococcus sp.; strain GC 4558
  MIC Enterococcus avium (GC 4558): 128 µg/mL (≈ 102 µM)
Enterococcus sp.; strain GC 6189
  MIC Enterococcus faecalis (GC 6189): >128 µg/mL
Escherichia coli; strain ATCC 25922
  MIC Escherichia coli (ATCC 25922): >128 µg/mL
Escherichia coli; strain GC 4559
  MIC Escherichia coli (GC 4559): 128 µg/mL (≈ 102 µM)
Escherichia coli; strain GC 4560
  MIC Escherichia coli (GC 4560): 64 µg/mL (≈ 51.2 µM)
